Converted amounts (≈) assume the structure as drawn. Where a SMILES comes first, the peptide text is derived from it. The star is where a group is joined. Boc = CC(C)(C)OC(=O)*; NHBn = c1ccc(CN*)cc1
Assays:
Escherichia coli = test: Antibacterial activity against Escherichia coli ATCC 35218 after 15 to 18 hrs under aerobic condition by modified broth microdilution method; type: functional
Klebsiella pneumoniae = test: Antibacterial activity against Klebsiella pneumoniae ATCC 700603 after 15 to 18 hrs under aerobic condition by modified broth microdilution method; type: functional
Staphylococcus aureus [1] = test: Antibacterial activity against methicillin-resistant Staphylococcus aureus DSM 50128509 after 15 to 18 hrs under aerobic condition by modified broth microdilution method; type: functional
L929 = test: Cytotoxicity against mouse L929 cells up to 200 ug/mL after 5 days by MTT assay; type: cell-based; details: l929, 120 h
Pseudomonas aeruginosa = test: Antibacterial activity against Pseudomonas aeruginosa ATCC 9027 after 15 to 18 hrs under aerobic condition by modified broth microdilution method; type: functional
Candida albicans [2] = test: Antifungal activity against Candida albicans ATCC 10231 after 15 to 18 hrs under aerobic condition by modified broth microdilution method; type: functional
Staphylococcus aureus [3] = test: Antibacterial activity against methicillin-resistant Staphylococcus aureus DSM 50128509; type: functional, organism-based
[4] = tested on: Staphylococcus epidermidis; test: Antibacterial activity against methicillin-resistant Staphylococcus epidermidis DSM 50160384 after 15 to 18 hrs under aerobic condition by modified broth microdilution method; type: functional
Candida albicans [5] = test: Antifungal activity against Candida albicans ATCC 10231; type: functional, organism-based
[6] = tested on: Staphylococcus epidermidis; test: Antibacterial activity against methicillin-resistant Staphylococcus epidermidis DSM 50160384; type: functional, organism-based

Structure (SMILES) | MIC (Escherichia coli) [µg/mL] | MIC (Klebsiella pneumoniae) [µg/mL] | MIC (Staphylococcus aureus [1]) [µg/mL] | Activity (L929) | MIC (Pseudomonas aeruginosa) [µg/mL] | MIC (Candida albicans [2]) [µg/mL] | IC50 (Staphylococcus aureus [3]) [µg/mL] | MIC [4] [µg/mL] | IC50 (Candida albicans [5]) [µg/mL] | IC50 [6] [µg/mL]
CC(C)c1nc(C[C@H](NC(=O)[C@H](Cc2c[nH]c3ccccc23)NC(=O)OC(C)(C)C)C(=O)NCc2ccccc2)c[nH]1 | > 200 | > 200 | 200 (≈ 349 µM) | Non-toxic | > 200 | > 200 | 10.3 (≈ 17.9 µM) | > 200 |  | 
CC(C)(C)OC(=O)N[C@@H](Cc1c[nH]c2ccccc12)C(=O)N[C@@H](Cc1c[nH]c(C2CCC2)n1)C(=O)NCc1ccccc1 | > 200 | > 200 | 200 (≈ 342 µM) | Non-toxic | > 200 | 200 (≈ 342 µM) | 22.4 (≈ 38.2 µM) | > 200 | 33.2 (≈ 56.7 µM) | 
CC(C)(C)OC(=O)N[C@@H](Cc1c[nH]c2ccccc12)C(=O)N[C@@H](Cc1c[nH]c(C(C)(C)C)n1)C(=O)NCc1ccccc1 | > 200 | > 200 | > 200 | Non-toxic | > 200 | > 200 |  | > 200 |  | 
COC(=O)[C@H](Cc1c[nH]c(C(C)C)n1)NC(=O)[C@H](Cc1c[nH]c2ccccc12)NC(=O)OC(C)(C)C | > 200 | > 200 | > 200 | Non-toxic | > 200 | > 200 |  | > 200 |  | 
CC(C)(C)c1nc(C[C@H](N)C(=O)N[C@@H](CCCNC(=N)N)C(=O)NCc2ccccc2)c[nH]1 | > 200 | > 200 | 20 (≈ 43.8 µM) | Non-toxic | > 200 | > 200 | 4.18 (≈ 9.15 µM) | 10 (≈ 21.9 µM) |  | 3.13 (≈ 6.86 µM)
CC(C)(C)OC(=O)N[C@@H](Cc1c[nH]c(C2CCCCC2)n1)C(=O)N[C@@H](CCCNC(=N)N)C(=O)NCc1ccccc1 | 200 (≈ 343 µM) | > 200 | 100 (≈ 172 µM) | Non-toxic | > 200 | > 200 | 12.1 (≈ 20.7 µM) | 100 (≈ 172 µM) |  | 18.4 (≈ 31.6 µM)
CC(C)c1nc(C[C@H](NC(=O)[C@@H](N)Cc2c[nH]c3ccccc23)C(=O)NCc2ccccc2)c[nH]1 | > 200 | > 200 | > 200 | Non-toxic | > 200 | > 200 |  | 100 (≈ 212 µM) |  | 12.8 (≈ 27.1 µM)
N=C(N)NCCC[C@H](NC(=O)[C@@H](N)Cc1c[nH]c(C2CCC2)n1)C(=O)NCc1ccccc1 | > 200 | > 200 | 50 (≈ 110 µM) | Non-toxic | > 200 | 100 (≈ 220 µM) | 6.99 (≈ 15.4 µM) | 50 (≈ 110 µM) | 9.95 (≈ 21.9 µM) | 3.94 (≈ 8.67 µM)
COC(=O)[C@H](CCCNC(=N)N)NC(=O)[C@@H](N)Cc1c[nH]c(C2CCCCC2)n1 | > 200 | > 200 | 50 (≈ 123 µM) | Non-toxic | > 200 | 200 (≈ 491 µM) | 20.9 (≈ 51.4 µM) | 10 (≈ 24.5 µM) | 27.5 (≈ 67.6 µM) | 1.92 (≈ 4.71 µM)
CC(C)(C)c1nc(C[C@H](NC(=O)[C@@H](N)Cc2c[nH]c3ccccc23)C(=O)NCc2ccccc2)c[nH]1 | > 200 | > 200 | > 200 | Non-toxic | > 200 | > 200 |  | 100 (≈ 205 µM) |  | 9.24 (≈ 19 µM)
COC(=O)[C@H](CCCNC(=N)N)NC(=O)[C@H](Cc1c[nH]c(C(C)C)n1)NC(=O)OC(C)(C)C | > 200 | > 200 | 200 (≈ 428 µM) | Non-toxic | > 200 | 200 (≈ 428 µM) | 12.4 (≈ 26.6 µM) | 200 (≈ 428 µM) | 20.9 (≈ 44.6 µM) | 13.1 (≈ 28 µM)
CC(C)(C)OC(=O)N[C@@H](Cc1c[nH]c2ccccc12)C(=O)N[C@@H](Cc1c[nH]c(C2CCCCC2)n1)C(=O)NCc1ccccc1 | > 200 | > 200 | 200 (≈ 326 µM) | Non-toxic | > 200 | > 200 | 31.7 (≈ 51.7 µM) | 200 (≈ 326 µM) |  | 23.8 (≈ 38.9 µM)
CC(C)(C)OC(=O)N[C@@H](Cc1c[nH]c2ccccc12)C(=O)N[C@@H](Cc1c[nH]c(C23CC4CC(CC(C4)C2)C3)n1)C(=O)NCc1ccccc1 | > 200 | 200 (≈ 301 µM) | 100 (≈ 150 µM) | Non-toxic | > 200 | 200 (≈ 301 µM) | 7.59 (≈ 11.4 µM) | 200 (≈ 301 µM) | 28.3 (≈ 42.6 µM) | 29.1 (≈ 43.7 µM)
COC(=O)[C@H](CCCNC(=N)N)NC(=O)[C@H](Cc1c[nH]c(C(C)(C)C)n1)NC(=O)OC(C)(C)C | > 200 | > 200 | 100 (≈ 208 µM) | Non-toxic | > 200 | > 200 | 4.15 (≈ 8.62 µM) | 200 (≈ 415 µM) |  | 20.1 (≈ 41.8 µM)
CC(C)(C)OC(=O)N[C@@H](Cc1c[nH]cn1)C(=O)N[C@@H](CCCNC(=N)N)C(=O)NCc1ccccc1 (Boc-His-Arg-NHBn) | > 200 | > 200 | > 200 | Non-toxic | > 200 | > 200 |  | 100 (≈ 200 µM) |  | 8.79 (≈ 17.6 µM)
COC(=O)[C@H](CCCNC(=N)N)NC(=O)[C@H](Cc1c[nH]cn1)NC(=O)OC(C)(C)C (Boc-His-Arg-OMe) | > 200 | > 200 | > 200 | Non-toxic | > 200 | > 200 |  | 100 (≈ 235 µM) |  | 5.07 (≈ 11.9 µM)
COC(=O)[C@H](Cc1c[nH]cn1)NC(=O)[C@H](Cc1c[nH]c2ccccc12)NC(=O)OC(C)(C)C (Boc-Trp-His-OMe) | > 200 | > 200 | 200 (≈ 439 µM) | Non-toxic | > 200 | 200 (≈ 439 µM) | 16.4 (≈ 35.9 µM) | > 200 | 31.4 (≈ 68.9 µM) | 
N=C(N)NCCC[C@H](NC(=O)[C@@H](N)Cc1c[nH]cn1)C(=O)NCc1ccccc1 (H-His-Arg-NHBn) | > 200 | > 200 | 100 (≈ 250 µM) | Non-toxic | > 200 | 200 (≈ 499 µM) | 7.04 (≈ 17.6 µM) | 100 (≈ 250 µM) | 16.6 (≈ 41.5 µM) | 8.07 (≈ 20.2 µM)
COC(=O)[C@H](CCCNC(=N)N)NC(=O)[C@@H](N)Cc1c[nH]cn1 (H-His-Arg-OMe) | > 200 | > 200 | 100 (≈ 307 µM) | Non-toxic | > 200 | > 200 | 4.88 (≈ 15 µM) | 50 (≈ 154 µM) |  | 2.72 (≈ 8.36 µM)
C[C@@H]1[C@H](O)[C@@H](C)/C=C/C=C/C=C/C=C/C=C/C=C/C=C/[C@H](O[C@@H]2O[C@H](C)[C@@H](O)[C@H](N)[C@@H]2O)C[C@@H]2O[C@](O)(C[C@@H](O)C[C@@H](O)[C@H](O)CC[C@@H](O)C[C@@H](O)CC(=O)O[C@H]1C)C[C@H](O)[C@H]2C(=O)O [AMPHOTERICIN B] |  |  |  |  |  |  |  |  | 0.34 (≈ 0.368 µM) | 
CN[C@H](CC(C)C)C(=O)N[C@H]1C(=O)N[C@@H](CC(N)=O)C(=O)N[C@H]2C(=O)N[C@H]3C(=O)N[C@H](C(=O)N[C@H](C(=O)O)c4cc(O)cc(O)c4-c4cc3ccc4O)[C@H](O)c3ccc(c(Cl)c3)Oc3cc2cc(c3O[C@@H]2O[C@H](CO)[C@@H](O)[C@H](O)[C@H]2O[C@H]2C[C@](C)(N)[C@H](O)[C@H](C)O2)Oc2ccc(cc2Cl)[C@H]1O [VANCOMYCIN] |  |  |  |  |  |  | 0.14 (≈ 0.0966 µM) |  |  | 0.14 (≈ 0.0966 µM)

From ChEMBL document CHEMBL1154782, “Discovery of Trp-His and His-Arg analogues as new structural classes of short antimicrobial peptides” (J Med Chem, 2009)
